Values after ≈ are worked out from the molar mass of the structure shown. Where two headings read alike, the source gives them in different places.
Assays:
Type in all cases: cell-based
E. coli ΔTolC = test: microbe, parasite or virus in culture; conditions: Escherichia coli
Procedure: (§1) Minimum inhibitory concentrations (MICs) were determined by broth microdilution method or agar dilution method following the Clinical and Laboratory Standards Institute guidelines. Standard bacterial strains were obtained from American Type Culture Collection (ATCC). Other bacterial strains were obtained from hospitals and commercial sources, so noted in Table 11. […] Specialized procedures were employed for streptococcal and anaerobic strains. All other bacterial strains were sub-cultured on blood agar plates (tryptic soy agar with 5% sheep blood, Hardy Diagnostics) and incubated overnight at 35° C. […] Suspensions were further diluted to obtain a final inoculum of 5×10^5 CFU/mL for broth microdilution experiments.

S. aureus MP-549 msrA = test: microbe, parasite or virus in culture; conditions: Staphylococcus aureus, MP549MSRA; S. aureus HAV#032, MP-549; MSR(A)
Procedure: as §1

S. aureus BAA 977 iErmA = test: microbe, parasite or virus in culture; conditions: Staphylococcus aureus, BAA-977 / MRSA
Procedure: as §1

[1] = test system: broad panel of different clinical isolates; test: microbe, parasite or virus in culture
Procedure: as §1

E. coli armA = test: microbe, parasite or virus in culture; conditions: Escherichia coli, E. coli HAV#056; Clinical, armA
Procedure: as §1

A. baumannii ATCC 19606 = test: MIC (broth microdilution or agar dilution, CLSI); conditions: Acinetobacter baumannii, ATCC19606, read-out: MIC
Procedure: as §1

S. pyogenes ATCC 19615 = test: MIC (broth microdilution or agar dilution, CLSI); conditions: Streptococcus pyogenes, read-out: MIC
Procedure: as §1

E. coli LptD = test: MIC (broth microdilution or agar dilution, CLSI); conditions: Escherichia coli, read-out: MIC
Procedure: as §1

E. faecalis ATCC 29212 = test: MIC (broth microdilution or agar dilution, CLSI); conditions: Enterococcus faecalis, read-out: MIC
Procedure: as §1

[2] = test system: S. pyogenes MMX 946; cErmB; test: MIC (broth microdilution or agar dilution, CLSI); conditions: Streptococcus pyogenes; S. pyogenes HAV#035, MMX 946; cErmB, mac-resistant; read-out: MIC
Procedure: as §1

S. aureus MMX 3035 cErmA = test: MIC (broth microdilution or agar dilution, CLSI); conditions: Staphylococcus aureus, MMX3035CERMA; S. aureus HAV#031, MMX 3035; cErmA; read-out: MIC
Procedure: as §1

S. aureus ATCC 29213 = test: MIC (broth microdilution or agar dilution, CLSI); conditions: Staphylococcus aureus, read-out: MIC
Procedure: as §1

S. pneumoniae ATCC 49619 = test: MIC (broth microdilution or agar dilution, CLSI); conditions: Streptococcus pneumoniae, read-out: MIC
Procedure: as §1

S. pneumoniae ATCC 6303 = test: MIC (broth microdilution or agar dilution, CLSI); conditions: Streptococcus pneumoniae, ATCC6303; S. pneumoniae HAV#351, ATCC 6303; read-out: MIC
Procedure: as §1

[3] = test system: E. faecalis MMX 847; cErmB; test: MIC (broth microdilution or agar dilution, CLSI); conditions: Enterococcus faecalis; E. faecalis HAV#036, MMX 847; mac-resistant, cErmB; read-out: MIC
Procedure: as §1

K. pneumoniae ATCC 10031 = test: MIC (broth microdilution or agar dilution, CLSI); conditions: Klebsiella pneumoniae, ATCC10031, K. pneumoniae HAV#008, ATCC 10031; read-out: MIC
Procedure: as §1

H. influenzae ATCC 49247 = test: MIC (broth microdilution or agar dilution, CLSI); conditions: Haemophilus influenzae, ATCC49247; H. influenzae HAV#007, ATCC 49247; read-out: MIC
Procedure: as §1

K. oxytoca Clinical = test: MIC (broth microdilution or agar dilution, CLSI); conditions: Klebsiella oxytoca, read-out: MIC
Procedure: as §1

[4] = test system: S. aureus ATCC BAA-1707 (MRSA); test: MIC (broth microdilution or agar dilution, CLSI); conditions: Staphylococcus aureus; S. aureus HAV#016, ATCC BAA-1707; MRSA; read-out: MIC
Procedure: as §1

[5] = test system: S. pneumoniae MMX 3028 cErmB; test: MIC (broth microdilution or agar dilution, CLSI); conditions: Streptococcus pneumoniae, MMX3028CERMB; S. pneumoniae HAV#033; MMX 3028, cErmB; read-out: MIC
Procedure: as §1

S. aureus hVISA = test: MIC (broth microdilution or agar dilution, CLSI); conditions: Staphylococcus aureus; S. aureus HAV#204, hVISA; read-out: MIC
Procedure: as §1

E. coli ATCC 25922 = test: MIC (broth microdilution or agar dilution, CLSI); conditions: Escherichia coli, ATCC25922, read-out: MIC
Procedure: as §1

[6] = test system: S. pneumoniae MMX 3031 cMefA; test: MIC (broth microdilution or agar dilution, CLSI); conditions: Streptococcus pneumoniae, MMX3031CMEFA, S. pneumoniae HAV#034; MMX 3031, cMefA; read-out: MIC
Procedure: as §1

S. aureus cErmA = test: MIC (broth microdilution or agar dilution, CLSI); conditions: Staphylococcus aureus; S. aureus cErmA; read-out: MIC
Procedure: (§2) Minimum inhibitory concentrations (MICs) were determined by broth microdilution method or agar dilution method following the Clinical and Laboratory Standards Institute guidelines. Standard bacterial strains were obtained from American Type Culture Collection (ATCC). Other bacterial strains were obtained from hospitals and commercial sources, so noted in Table 11. Before the start of the MIC experiment, standard and test compound stock solutions were prepared in dimethyl sulfoxide (DMSO, Aldrich D2650) at a stock concentration of 5,120 μg/mL. The compound concentration range typically employed for each experiment was 128-0.06 μg/mL (2.5% final DMSO concentration). Clindamycin was used as a comparator in all experiments and each experiment was performed in triplicate. Specialized procedures were employed for streptococcal and anaerobic strains. All other bacterial strains were sub-cultured on blood agar plates (tryptic soy agar with 5% sheep blood, Hardy Diagnostics) and incubated overnight at 35° C. Organisms were suspended in cation-adjusted Mueller-Hinton broth (CaMHB, BD 212322) and optical density was adjusted to 0.5 McFarland standard. Suspensions were further diluted to obtain a final inoculum of 5×10^5 CFU/mL for broth microdilution experiments.

P. aeruginosa ATCC 27853 = test: MIC (broth microdilution or agar dilution, CLSI); conditions: Pseudomonas aeruginosa, ATCC27853; P. aeruginosa ATCC 27853; read-out: MIC
Procedure: as §2

E. faecium Clinical VRE = test: MIC (broth microdilution or agar dilution, CLSI); conditions: Enterococcus faecium; E. faecium Clinical VRE; read-out: MIC
Procedure: as §2

[7] = ATCC19615, S. pyogenes ATCC 19615
[8] = ATCC29212, E. faecalis ATCC 29212
[9] = ATCC29213, S. aureus ATCC 29213
[10] = ATCC49619, S. pneumoniae ATCC 49619

CC[C@H]1OC(=O)[C@H](C)[C@@H](O[C@H]2C[C@@](C)(OC)[C@@H](O)[C@H](C)O2)[C@H](C)[C@@H](O[C@@H]2O[C@H](C)C[C@H](N(C)C)[C@H]2O)[C@](C)(O)C[C@@H](C)C(=O)[C@H](C)[C@@H](O)[C@]1(C)O [Erythromycin]
MIC (E. coli ΔTolC; E. coli HAV#038, ΔTolC): 4 µg/mL (≈ 5.45 µM) | MIC (S. aureus MP-549 msrA): 64 µg/mL (≈ 87.2 µM) | MIC (S. aureus BAA 977 iErmA): > 64 µg/mL | MIC ([1]; Enterococcus faecalis, VRE, E. faecalis HAV#251, Clinical VRE): > 64 µg/mL | MIC ([1]; Escherichia coli, E. coli HAV#501, Clinical): > 64 µg/mL | MIC ([1]; Klebsiella pneumoniae, K. pneumoniae HAV#041, Clinical, KPC): > 64 µg/mL | MIC ([1]; Staphylococcus aureus, MRSA, S. aureus HAV#017, MRSA Col(Colindale, England)): 0.5 µg/mL (≈ 0.681 µM) | MIC ([1]; Staphylococcus aureus, S. aureus HAV#216, Clinical, cfr): 32 µg/mL (≈ 43.6 µM) | MIC ([1]; Staphylococcus aureus, S. aureus HAV#217, cfr): 64 µg/mL (≈ 87.2 µM) | MIC ([1]; Staphylococcus aureus, VISA, S. aureus HAV#203, Clinical (VISA)): > 64 µg/mL | MIC ([1]; Staphylococcus epidermidis, S. epidermidis HAV# 275 Clinical, cfr): 8 µg/mL (≈ 10.9 µM) | MIC ([1]; Staphylococcus epidermidis, S. epidermidis HAV# 276, cfr): > 128 µg/mL | MIC (E. coli armA): 32 µg/mL (≈ 43.6 µM) | MIC (A. baumannii ATCC 19606; A. baumanii HAV#010, ATCC 19606): 64 µg/mL (≈ 87.2 µM) | MIC (S. pyogenes ATCC 19615; ATCC19615, S. pyogenes HAV#004, ATCC 19615): < 0.06 µg/mL | MIC (E. coli LptD; E. coli HAV#040, LptD): 1 µg/mL (≈ 1.36 µM) | MIC (E. faecalis ATCC 29212; ATCC29212, E. faecalis HAV#005, ATCC 29212): 2 µg/mL (≈ 2.73 µM) | MIC [2]: > 64 µg/mL | MIC (S. aureus MMX 3035 cErmA): > 64 µg/mL | MIC (S. aureus ATCC 29213; ATCC29213, S. aureus HAV#001, ATCC 29213, MP-549): 0.5 µg/mL (≈ 0.681 µM) | MIC (S. pneumoniae ATCC 49619; ATCC49619, S. pneumoniae HAV#003, ATCC 49619): ≤ 0.06 µg/mL | MIC (S. pneumoniae ATCC 6303): 0.5 µg/mL (≈ 0.681 µM) | MIC [3]: > 64 µg/mL | MIC (K. pneumoniae ATCC 10031): 8 µg/mL (≈ 10.9 µM) | MIC (H. influenzae ATCC 49247): 8 µg/mL (≈ 10.9 µM) | MIC (K. oxytoca Clinical; K. oxytoca HAV#450, Clinical): > 64 µg/mL | MIC [4]: 0.5 µg/mL (≈ 0.681 µM) | MIC [5]: > 64 µg/mL | MIC (S. aureus hVISA): > 64 µg/mL | MIC (E. coli ATCC 25922; E. coli HAV#006, ATCC 25922): 64 µg/mL (≈ 87.2 µM) | MIC [6]: 8 µg/mL (≈ 10.9 µM)

CSC1O[C@H]([C@H](NC(=O)[C@H]2NC[C@@H]3C[C@H](CCF)CCO[C@H]32)[C@H](C)Cl)C(O)[C@@H](O)[C@H]1O (stereo partly shown) [FSA-10-09-099]
MIC (S. aureus cErmA): 32 µg/mL (≈ 66 µM) | MIC (P. aeruginosa ATCC 27853): > 128 µg/mL | MIC (E. faecium Clinical VRE): 16 µg/mL (≈ 33 µM) | MIC (E. coli ΔTolC; E. coli ΔTolC): 1 µg/mL (≈ 2.06 µM) | MIC (A. baumannii ATCC 19606; A. baumannii ATCC 19606): > 128 µg/mL | MIC (S. pyogenes ATCC 19615; [7]): 0.5 µg/mL (≈ 1.03 µM) | MIC (E. coli LptD; E. coli LptD): 4 µg/mL (≈ 8.25 µM) | MIC (E. faecalis ATCC 29212; [8]): 0.5 µg/mL (≈ 1.03 µM) | MIC (S. aureus ATCC 29213; [9]): 0.25 µg/mL (≈ 0.515 µM) | MIC (S. pneumoniae ATCC 49619; [10]): 0.25 µg/mL (≈ 0.515 µM) | MIC (K. oxytoca Clinical; K. oxytoca Clinical): 32 µg/mL (≈ 66 µM) | MIC (E. coli ATCC 25922; E. coli ATCC 25922): 32 µg/mL (≈ 66 µM)

CSC1O[C@H]([C@H](NC(=O)[C@H]2NC[C@@H]3C[C@H](CC4CC4)CCO[C@H]32)[C@H](C)Cl)C(O)[C@@H](O)[C@H]1O (stereo partly shown) [FSA-10-10-001]
MIC (S. aureus cErmA): 4 µg/mL (≈ 8.11 µM) | MIC (P. aeruginosa ATCC 27853): > 128 µg/mL | MIC (E. faecium Clinical VRE): 2 µg/mL (≈ 4.06 µM) | MIC (E. coli ΔTolC; E. coli ΔTolC): 0.25 µg/mL (≈ 0.507 µM) | MIC (A. baumannii ATCC 19606; A. baumannii ATCC 19606): 16 µg/mL (≈ 32.5 µM) | MIC (S. pyogenes ATCC 19615; [7]): 0.125 µg/mL (≈ 0.254 µM) | MIC (E. coli LptD; E. coli LptD): 0.5 µg/mL (≈ 1.01 µM) | MIC (E. faecalis ATCC 29212; [8]): 0.06 µg/mL (≈ 0.122 µM) | MIC (S. aureus ATCC 29213; [9]): 0.125 µg/mL (≈ 0.254 µM) | MIC (S. pneumoniae ATCC 49619; [10]): 0.125 µg/mL (≈ 0.254 µM) | MIC (K. oxytoca Clinical; K. oxytoca Clinical): 8 µg/mL (≈ 16.2 µM) | MIC (E. coli ATCC 25922; E. coli ATCC 25922): 4 µg/mL (≈ 8.11 µM)

CC[C@@H]1CCO[C@@H]2[C@H](CN[C@@H]2C(=O)N[C@H]([C@H](C)Cl)[C@H]2OC(SC)[C@H](O)[C@H](O)C2O)C1 (stereo partly shown) [FSA-10-10-012]
MIC (S. aureus cErmA): 8 µg/mL (≈ 17.1 µM) | MIC (P. aeruginosa ATCC 27853): > 128 µg/mL | MIC (E. faecium Clinical VRE): 8 µg/mL (≈ 17.1 µM) | MIC (E. coli ΔTolC; E. coli ΔTolC): 0.5 µg/mL (≈ 1.07 µM) | MIC (A. baumannii ATCC 19606; A. baumannii ATCC 19606): 32 µg/mL (≈ 68.5 µM) | MIC (S. pyogenes ATCC 19615; [7]): 0.125 µg/mL (≈ 0.268 µM) | MIC (E. coli LptD; E. coli LptD): 2 µg/mL (≈ 4.28 µM) | MIC (E. faecalis ATCC 29212; [8]): 0.25 µg/mL (≈ 0.535 µM) | MIC (S. aureus ATCC 29213; [9]): 0.125 µg/mL (≈ 0.268 µM) | MIC (S. pneumoniae ATCC 49619; [10]): 0.125 µg/mL (≈ 0.268 µM) | MIC (K. oxytoca Clinical; K. oxytoca Clinical): 16 µg/mL (≈ 34.3 µM) | MIC (E. coli ATCC 25922; E. coli ATCC 25922): 16 µg/mL (≈ 34.3 µM)

— patent US20230203081A1, “LINCOSAMIDE ANTIBIOTICS AND USES THEREOF” (President and Fellows of Harvard College, priority 2020, published 2023)
